In the supplement of paper PMC10307832:

What was measured:
Experiment in all cases: relative viability (nuclei count vs DMSO), 5 days (fraction); higher = more cells survive
Crizotinib + Pictilisib = compound: C[C@@H](Oc1cc(-c2cnn(C3CCNCC3)c2)cnc1N)c1c(Cl)ccc(F)c1Cl [Crizotinib] + CS(=O)(=O)N1CCN(Cc2cc3nc(-c4cccc5[nH]ncc45)nc(N4CCOCC4)c3s2)CC1 [Pictilisib] (partner 1 µM)
In short: (§1)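 Five library-drug doses in √10 steps were combined with a fixed anchor-drug dose, or a single drug was given alone, by pin tool to lung cancer cell lines in 1536-well plates the day after seeding. Nuclei were stained and counted after 5 days. Relative viability is the nuclei count in treated wells over that in vehicle wells, taken as the median of duplicate plates.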

Carfilzomib + Navitoclax = compound: CC(C)C[C@H](NC(=O)[C@H](CCc1ccccc1)NC(=O)CN1CCOCC1)C(=O)N[C@@H](Cc1ccccc1)C(=O)N[C@@H](CC(C)C)C(=O)[C@@]1(C)CO1 [Carfilzomib] + CC1(C)CCC(c2ccc(Cl)cc2)=C(CN2CCN(c3ccc(C(=O)NS(=O)(=O)c4ccc(N[C@H](CCN5CCOCC5)CSc5ccccc5)c(S(=O)(=O)C(F)(F)F)c4)cc3)CC2)C1 [Navitoclax] (partner 0.5 µM)
In short: as §1

Olaparib + Luminespib = compound: O=C(c1cc(Cc2n[nH]c(=O)c3ccccc23)ccc1F)N1CCN(C(=O)C2CC2)CC1 [Olaparib] + CCNC(=O)c1noc(-c2cc(C(C)C)c(O)cc2O)c1-c1ccc(CN2CCOCC2)cc1 [Luminespib] (partner 0.01 µM)
In short: as §1

Crizotinib + Vorinostat = compound: C[C@@H](Oc1cc(-c2cnn(C3CCNCC3)c2)cnc1N)c1c(Cl)ccc(F)c1Cl [Crizotinib] + O=C(CCCCCCC(=O)Nc1ccccc1)NO [Vorinostat] (partner 1 µM)
In short: as §1

Cell Line	relative viability (Crizotinib + Pictilisib; first compound 0.01 µM)	relative viability (Crizotinib + Pictilisib; first compound 0.03162 µM)	relative viability (Crizotinib + Pictilisib; first compound 0.1 µM)	relative viability (Crizotinib + Pictilisib; first compound 0.3162 µM)	relative viability (Crizotinib + Pictilisib; first compound 1 µM)	relative viability (Carfilzomib + Navitoclax; first compound 0.001 µM)	relative viability (Carfilzomib + Navitoclax; first compound 0.003162 µM)	relative viability (Carfilzomib + Navitoclax; first compound 0.01 µM)	relative viability (Carfilzomib + Navitoclax; first compound 0.03162 µM)	relative viability (Carfilzomib + Navitoclax; first compound 0.1 µM)	relative viability (Olaparib + Luminespib; first compound 0.08 µM)	relative viability (Olaparib + Luminespib; first compound 0.253 µM)	relative viability (Olaparib + Luminespib; first compound 2.53 µM)	relative viability (Olaparib + Luminespib; first compound 8 µM)	relative viability (Crizotinib + Vorinostat; first compound 0.01 µM)	relative viability (Crizotinib + Vorinostat; first compound 0.03162 µM)	relative viability (Crizotinib + Vorinostat; first compound 0.1 µM)	relative viability (Crizotinib + Vorinostat; first compound 0.3162 µM)	relative viability (Crizotinib + Vorinostat; first compound 1 µM)
COR-L23	0.695	0.747	0.705	0.771	0.775	1.1	1.14	0.724	0.0667	0.0704	0.722	0.539	0.448	0.186	0.43	0.418	0.484	0.4	0.471
LK-2	0.51	0.59	0.492	0.645	0.568	0.845	0.907	0.879	0.209	0.175	0.176	0.212	0.214	0.181	0.346	0.29	0.314	0.252	0.277
NCI-H520	0.261	0.333	0.303	0.319	0.251	1.04	1.37	0.797	0.183	0.168	0.205	0.277	0.255	0.23	0.568	0.68	0.732	0.774	0.722
ChaGo-K-1	0.736	0.651	0.825		0.567		1.58	1.01	0.693	0.385	0.596	0.515	0.411	0.29	0.703	0.706	0.712	0.4	0.727
NCI-H838	0.396	0.5	0.483	0.426	0.496	1.24	1.26	1.16	0.686	0.153	0.332	0.218	0.229	0.219	0.715		0.728	0.687	0.701
NCI-H2126	0.456	0.5	0.481	0.429	0.48	0.826	0.884	0.871	0.865	0.592	1.13	0.797	0.811	0.724	0.636	0.835	0.682	0.371	
NCI-H2085	0.357	0.484	0.409	0.437	0.451	1.08	1.23	1.02	0.436	0.242	0.499	0.381	0.427	0.437	0.756	0.733		0.782	0.742
LU99A	0.261	0.327	0.348	0.336	0.365	0.738	0.898	0.793	0.581	0.183	0.249	0.254	0.21	0.206	0.448	0.515	0.512	0.459	0.507
NCI-H1944	0.322	0.341	0.328	0.344	0.343	0.998	1.16	1.01	1.05	0.546	0.741	0.625	0.534	0.534	0.446	0.508	0.493	0.571	0.54
NCI-H3122	0.533	0.6	0.609	0.434	0.27	1.03	1.07	1.05	0.992	0.672	0.0823	0.107	0.101	0.0643	0.929	0.753	0.932	0.941	0.961
LCLC-97TM1	0.205	0.18	0.182	0.128	0.194	0.285	0.47	0.478	0.171	0.128	0.756	0.651	0.712	0.637	0.672	0.697	0.686	0.223	0.658
LXF-289	0.757	0.803	0.726	0.757	0.782	0.915	0.974	0.935	0.0853	0.0461	0.784	0.635	0.721	0.567	0.75	0.799	0.757	0.599	0.786
NCI-H2405	0.457	0.526	0.419	0.37	0.356		1.26	1.04	0.108	0.092	0.646	0.651	0.685	0.782	0.955	1.01	1.08	0.535	0.959
NCI-H727	0.368	0.389	0.561	0.285	0.29	0.429	0.637	0.601	0.165	0.137	0.446	0.531	0.461	0.346	1.16	1.1	1.3	1.16	1.37
LC-2-ad	0.473	0.426	0.461		0.44	0.568	0.452	0.407	0.227	0.135	1.11	0.865	0.765	0.811	0.703	0.656	0.699		0.704
